Source: PMC5442318, “Hundreds of dual-stage antimalarial molecules discovered by a functional gametocyte screen” (Nature Communications, 2017)
Read-outs that look alike come from different tables or passages of the source.

How the values were obtained:
[1] = tested on: Plasmodium berghei asexual blood stages; assay: In vivo antimalarial therapeutic efficacy, P. berghei murine model; set-up: species or system CD1 mice
Method: Two out of the six compounds progressed to SMFA, TCMDC-123767 (cluster 30) and TCMDC-141154 (cluster 4), were evaluated in vivo in the Plasmodium berghei murine model. Selection criteria was based on the compound potencies in both asexual stages and gametocytes in the Pf FGAA, as well as on their transmission-blocking activity observed in the SMFA (Table 1). Owing to compound availability, TCMDC-141154 had to be replaced by a close analogue from cluster 4: TCMDC-140549 (Supplementary Data 3). Compounds were tested at 50 mg kg^−1 single dose 2-day oral treatment and efficacy was measured as a reduction of asexual blood stages parasitaemia greater than 40% compared with the vehicle-treated mice.
Pathogen-free CD1 mice (Hsd:ICR) were obtained from Harlan Interfauna Iberica (Barcelona, Spain). Eight weeks old female CD-1 mice were infected intravenously with 10^7 infected erythrocytes (day 0). Dosing solutions were prepared in water containing 5% DMSO/20% Captisol, at a target dose of 50 mg kg^−1. Mice received two oral doses once a day according to their body weight (20 ml kg^−1) starting at day 2 after infection. Control mice received the same treatment schedule with the vehicle used for the compound preparation. Samples from mice peripheral blood were taken before starting treatment and 24 h after finishing the dosing, to measure parasitaemia by flow cytometry, using the YOYO-1 staining, to assess the reduction of parasitaemia compared with the vehicle-treated mice.

[2] = tested on: P. falciparum stage V female gametocytes; assay: P. falciparum female gametocyte activation assay (Pf FGAA), 24 h or 48 h preincubation, Pfs25 expression readout; format: cell-based, Plasmodium falciparum NF54; conditions: for Pf FGAA classification: SLOW / FAST / GAMETE from activity at 48h, 24h, 0h incubation
Procedure, shortened: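 Female activation, triggered by xanthurenic acid and cooling, was scored by imaging Cy3-labelled anti-Pfs25 female gametes after 24 h at 26 °C. Beforehand, purified NF54 stage V gametocytes had been incubated with compound for either 24 h or 48 h (37 °C, 3% O2). Values are pIC50 from full-curve regression.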

[3] = tested on: P. falciparum female gametes; assay: Pf FGAA with compounds added 30 min after triggering gametocyte activation (gamete-targeting); format: cell-based, Plasmodium falciparum NF54; conditions: 0h incubation time
[4] = tested on: P. falciparum asexual blood stages; conditions: cited from earlier work; for IC50: read-out: Pf Asexual blood stages XC50
[5] = Artificial membrane permeability assay (AMPA); format: in vitro ADME; conditions: 10 μM, pH 7.05, 3 h
Method: It is a 96-well plate-based assay that measures the speed of permeation of a compound (at 10 μM concentration) through a phospholipid membrane, consisting in 1.8% egg L-a-phosphatidylcholine (830051, Avanti Polar Lipids) and 1% cholesterol (C8667, Sigma) dissolved in n-decane (D0011, TCI American). Phosphate buffer (50 mM Na2HPO4 with 0.5% 2-hydroxypropyl-b-cyclodextrin), pH 7.05, is added to the top and bottom of the plate (S5EJ046I08, MilliPore Corp.). The lipids are allowed to form bilayers across the small holes in the filter and compound concentration is measured 3 h later in both donor and the acceptor compartments by HPLC (Agilent 1100 LC). Permeability (P) (nm s^−1) is calculated using the following formulas:
where X=VD/VR; CR and CD are final concentrations in receiver and donor side, respectively; VR and VD are volumes in receiver and donor compartment, respectively; A is the area (cm^2) and t is the incubation time (s). The considered cut-off values are as follows: High: P>200 nm s^−1; Medium: 10 nm s^−1<P<200 nm s^−1; Low: P<10 nm s^−1.

HepG2 cells = assay: HepG2 cytotoxicity assay; format: cell-based; conditions: mean
Procedure, shortened: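 Luminescent read-out (CellTiter-Glo) taken 10 min after reagent addition at RT; plates and reagent pre-equilibrated 30 min at RT.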

[6] = tested on: P. falciparum stages IV–V gametocytes; assay: Gametocytocidal ATP-depletion assay (gametocyte ATP bioluminescence); format: cell-based, Plasmodium falciparum
Procedure, shortened: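 Read-out is luciferase luminescence of parasite ATP (BacTiter-Glo), standing in for viability. Double-purified mature stage IV–V gametocytes, 12,500 per well, were exposed 48 h at 37 °C in low-O2 gas; screening concentration 2 μM.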

[7] = 24h incubation time, read-out: Pf FGAA IC50 (µM) 24h
[8] = TCAMS data, ref 1 (Gamo, F. J. et al., Nature 465, 305-310, 2010)
[9] = mean, P. falciparum female gametocyte activation assay, read-out: Gametocytes mean Pf FGAA IC50
[10] = TCAMS asexual blood stage data, ref 1 (Gamo, F. J. et al., Nature 465, 305-310, 2010)

Question: For `CC(C)(C)CNCC(C)(C)c1nc(-c2ccc(Cl)c(O)c2)c(-c2ccncc2)[nH]1.Cl` [TCMDC-140549], which “reduction of asexual blood stages parasitaemia (threshold 40% vs vehicle)” value ([1]; 50 mg kg^−1 single dose 2-day oral treatment, mice) is on record?
Answer: not reduced above the threshold

Question: What about the ED50 ([1]; single dose 2-day treatment, oral, P. berghei mice) of the same molecule?
Answer: > 50 mg/kg

Question: And the IC50 [2, 7]?
Answer: 3.56 µM

Question: And the “Pf FGAA classification” value [2]?
Answer: GAMETE

Question: And the IC50 ([2]; mean, read-out: Gametocytes mean Pf FGAA IC50)?
Answer: 1.01 µM

Question: What about the IC50 [3] of the same molecule?
Answer: 0.51 µM

Question: What about the IC50 ([4]; TCAMS data, ref 1 (Gamo et al., 2010)) of the same molecule?
Answer: 0.6 µM

Question: What about the “Pf Asexual stages XC50” value [4, 8] of the same molecule?
Answer: 0.60 µM

Question: What about the “permeability through artificial membranes” value [5] of the same molecule?
Answer: 17 ×10⁻⁶ cm/s

Question: What about the “HepG2 cells mean TOX50” value (HepG2 cells) of the same molecule?
Answer: 11.63 µM

Question: And the “Gametocytes mean ATP inhibition at 2µM (%)” value [6]?
Answer: -11.46%

Question: Which results are given for `CC(C)(CNC(=O)[C@@H]1CCCCN1)c1nc(-c2ccc(Cl)c(O)c2)c(-c2ccncc2)[nH]1.Cl` [TCMDC-141079]?
Answer: IC50 [2, 7]: 2.48 µM; Pf FGAA classification [2]: GAMETE; IC50 [2, 9]: 1.58 µM; IC50 [3]: 2.06 µM; IC50 [4, 10]: 0.84 µM; Pf Asexual stages XC50 [4, 8]: 0.84 µM; HepG2 cells mean TOX50 (HepG2 cells; HepG2 cells): 38.91 µM; Gametocytes mean ATP inhibition at 2µM [6]: -6.33%

Question: Which results are given for `O=C(CCC1CCCC1)N(Cc1ccc(-c2ccc(CNCCc3ccccc3)cc2)cc1)C1CCCNC1.O=C(O)C(F)(F)F` (stereo not drawn) [TCMDC-141444]?
Answer: IC50 [2, 7]: 6.85 µM; Pf FGAA classification [2]: SLOW; IC50 [2, 9]: 1.98 µM; IC50 [3]: 15.3 µM; IC50 [4, 10]: 1.22 µM; Pf Asexual stages XC50 [4, 8]: 1.22 µM; HepG2 cells mean TOX50 (HepG2 cells; HepG2 cells): 5.19 µM; Gametocytes mean ATP inhibition at 2µM [6]: 26.17%

Question: With `CN1CCN(CCCNc2ncc3c(-c4ccc(NC(=O)Nc5cc(C(F)(F)F)ccc5F)c(F)c4)nn(C)c3n2)CC1.O=C(O)C(F)(F)F` [TCMDC-141611] as the molecule, how does the IC50 [2, 7] read?
Answer: 11.1 µM

Question: And the “Pf FGAA classification” value [2]?
Answer: SLOW

Question: And the IC50 [2, 9]?
Answer: 0.87 µM

Question: What about the IC50 [3] of the same molecule?
Answer: 11.3 µM

Question: What about the IC50 [4, 10] of the same molecule?
Answer: 0.86 µM

Question: And the “Pf Asexual stages XC50” value [4, 8]?
Answer: 0.86 µM

Question: What about the “HepG2 cells mean TOX50” value (HepG2 cells; HepG2 cells) of the same molecule?
Answer: 4.90 µM

Question: And the “Gametocytes mean ATP inhibition at 2µM” value [6]?
Answer: -15.14%

Question: With `CCOc1ccc2c(=NN=Cc3cc(OC)c(OC)cc3OC)cc(C)[nH]c2c1` [TCMDC-142207] as the molecule, how does the IC50 [2, 7] read?
Answer: 4.97 µM

Question: And the “Pf FGAA classification” value [2]?
Answer: SLOW

Question: What about the IC50 [2, 9] of the same molecule?
Answer: 1.22 µM

Question: And the IC50 [3]?
Answer: 6.42 µM

Question: And the IC50 [4, 10]?
Answer: 1 µM

Question: What about the “Pf Asexual stages XC50” value [4, 8] of the same molecule?
Answer: 0.17 µM

Question: What about the “HepG2 cells mean TOX50” value (HepG2 cells; HepG2 cells) of the same molecule?
Answer: 12.17 µM

Question: And the “Gametocytes mean ATP inhibition at 2µM” value [6]?
Answer: -8.55%

Question: With `CN(C)CCN1CCN(CCCN2c3ccccc3Sc3ccc(C(F)(F)F)cc32)CC1.Cl` [TCMDC-142257] as the molecule, how does the IC50 [2, 7] read?
Answer: 1.58 µM

Question: And the “Pf FGAA classification” value [2]?
Answer: FAST

Question: And the IC50 [2, 9]?
Answer: 5.25 µM

Question: What about the IC50 [3] of the same molecule?
Answer: > 20 µM

Question: What about the IC50 [4, 10] of the same molecule?
Answer: 0.76 µM

Question: And the “Pf Asexual stages XC50” value [4, 8]?
Answer: 0.76 µM

Question: What about the “HepG2 cells mean TOX50” value (HepG2 cells; HepG2 cells) of the same molecule?
Answer: 77.62 µM

Question: And the “Gametocytes mean ATP inhibition at 2µM” value [6]?
Answer: 23.41%
